According to patent publication US8987258B2 (priority 2008, dated 2015):

Biological target: T1, SIRT1 (Homo sapiens, UniProt Q96EB6)
T1 sequence (Q96EB6 1-747): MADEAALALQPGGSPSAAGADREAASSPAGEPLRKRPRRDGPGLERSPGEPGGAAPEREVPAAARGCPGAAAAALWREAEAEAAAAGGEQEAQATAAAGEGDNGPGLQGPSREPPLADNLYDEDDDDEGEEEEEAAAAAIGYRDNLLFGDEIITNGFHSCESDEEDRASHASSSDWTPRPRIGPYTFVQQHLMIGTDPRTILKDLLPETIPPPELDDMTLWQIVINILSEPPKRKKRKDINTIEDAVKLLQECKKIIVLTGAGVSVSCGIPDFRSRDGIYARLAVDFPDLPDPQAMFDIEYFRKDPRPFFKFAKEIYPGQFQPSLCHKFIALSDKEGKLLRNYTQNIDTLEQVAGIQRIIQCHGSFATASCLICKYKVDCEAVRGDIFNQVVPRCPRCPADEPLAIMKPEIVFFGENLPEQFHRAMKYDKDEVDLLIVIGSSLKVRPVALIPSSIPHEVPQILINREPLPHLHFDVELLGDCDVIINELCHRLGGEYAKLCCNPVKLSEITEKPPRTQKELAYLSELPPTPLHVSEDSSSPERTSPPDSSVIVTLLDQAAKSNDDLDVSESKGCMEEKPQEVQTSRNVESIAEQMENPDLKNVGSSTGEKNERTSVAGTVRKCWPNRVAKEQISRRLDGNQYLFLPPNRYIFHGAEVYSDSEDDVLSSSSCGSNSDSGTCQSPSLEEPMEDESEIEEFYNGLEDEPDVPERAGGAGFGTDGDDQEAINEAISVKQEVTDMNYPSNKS
Assay: Mass spectrometry based SIRT1 deacetylase activation assay
Type: biochemical
Details: for EC1.5 μM: 0.5 μM peptide substrate, 120 μM βNAD+, 10 nM SIRT1, 25 min, 25° C.; for Emax: 25 min, mass spectrometry assay, read-out: % Fold Act. (percent maximum fold activation)
Excerpt: A mass spectrometry based assay was used to identify modulators of SIRT1 activity. The mass spectrometry based assay utilizes a peptide having 20 amino acid residues as follows: Ac-EE-K(biotin)-GQSTSSHSK(Ac)NleSTEG-K(5TMR)-EE-NH2 (SEQ ID NO: 1) wherein K(Ac) is an acetylated lysine residue and Nle is a norleucine. The peptide is labeled with the fluorophore 5TMR (excitation 540 nm/emission 580 nm) at the C-terminus. The sequence of the peptide substrate is based on p53 with several modifications. In addition, the methionine residue naturally present in the sequence was replaced with the norleucine because the methionine may be susceptible to oxidation during synthesis and purification.
The mass spectrometry assay is conducted as follows: 0.5 μM peptide substrate and 120 μM βNAD^+ is incubated with 10 nM SIRT1 for 25 minutes at 25° C. in a reaction buffer (50 mM Tris-acetate pH 8, 137 mM NaCl, 2.7 mM KCl, 1 mM MgCl2, 5 mM DTT, 0.05% BSA). Test compounds may be added to the reaction as described above. […] After the 25 minute incubation with SIRT1, 10 μL of 10% formic acid is added to stop the reaction. Reactions are sealed and frozen for later mass spec analysis. Determination of the mass of the substrate peptide allows for precise determination of the degree of acetylation (i.e. starting material) as compared to deacetylated peptide (product).
A control for inhibition of sirtuin activity is conducted by adding 1 μL of 500 mM nicotinamide as a negative control at the start of the reaction (e.g., permits determination of maximum sirtuin inhibition). A control for activation of sirtuin activity is conducted using 10 nM of sirtuin protein, with 1 μL of DMSO in place of compound, to determine the amount of deacetylation of the substrate at a given timepoint within the linear range of the assay. This timepoint is the same as that used for test compounds and, within the linear range, the endpoint represents a change in velocity.
For the above assay, SIRT1 protein was expressed and purified as follows. […] The protein was expressed by induction with 1 mM IPTG as an N-terminal His-tag fusion protein at 18° C. overnight and harvested at 30,000×g. Cells were lysed with lysozyme in lysis buffer (50 mM Tris-HCl, 2 mM Tris[2-carboxyethyl]phosphine (TCEP), 10 μM ZnCl2, 200 mM NaCl) and further treated with sonication for 10 min for complete lysis. The protein was purified over a Ni-NTA column (Amersham) and fractions containing pure protein were pooled, concentrated and run over a sizing column (Sephadex S200 26/60 global). The peak containing soluble protein was collected and run on an Ion-exchange column (MonoQ). Gradient elution (200 mM-500 mM NaCl) yielded pure protein. This protein was concentrated and dialyzed against dialysis buffer (20 mM Tris-HCl, 2 mM TCEP) overnight. The protein was aliquoted and frozen at −80° C. until further use.

Row | EC1.5 μM | Emax [%] | SMILES
1 | C (EC1.5>25 μM) | < 200 | O=C(Nc1cccc2c(=O)cc(-c3ccccc3F)oc12)c1cscn1 [Compound 279]
2 | C (EC1.5>25 μM) | < 200 | O=C(Nc1cccc2c(=O)cc(-c3cccc(C(F)(F)F)c3)oc12)c1cnccn1 [Compound 205]
3 | A (EC1-5<1.0) | > 200 | O=C(Nc1cccc2c(=O)cc(-c3ccccc3C(F)F)oc12)c1cccc(CN2CCOCC2)n1 [Compound 339]
4 | B (EC1.5 1-25 μM) | > 200 | CC(C)c1ccccc1-c1cc(=O)c2cccc(NC(=O)c3cscn3)c2o1 [Compound 287]
5 | C (EC1.5>25 μM) | < 200 | O=C(Nc1nccs1)c1cccc2c(=O)cc(-c3cccc(C(F)(F)F)c3)oc12 [Compound 206]
6 | A (EC1-5<1.0) | > 200 | O=C(Nc1cccc2c(=O)cc(-c3ccccc3C(F)F)oc12)c1cnccn1 [Compound 282]
7 | A (EC1-5<1.0) | > 200 | O=C(Nc1cccc2c(=O)cc(-c3ccccc3Cl)oc12)c1cccc(CN2CCOCC2)n1 [Compound 331]
8 | A (EC1-5<1.0) | > 200 | Cn1nccc1C(=O)Nc1cccc2c(=O)cc(-c3ccccc3C(F)(F)F)oc12 [Compound 257]
9 | C (EC1.5>25 μM) | < 200 | O=C(Nc1cccc2c(=O)cc(-c3cccc(OC(F)(F)F)c3)oc12)c1cscn1 [Compound 202]
10 | C (EC1.5>25 μM) | < 200 | CS(=O)(=O)c1ccc(-c2cc(=O)c3cccc(NC(=O)c4ccccn4)c3o2)cc1 [Compound 249]
11 | B (EC1.5 1-25 μM) | > 200 | O=C(Nc1cccc2c(=O)cc(-c3ccccc3C(F)(F)F)oc12)c1cccnc1OCC(O)CO (stereo not shown) [Compound 321]
12 | B (EC1.5 1-25 μM) | > 200 | O=C(Nc1cccc2c(=O)cc(-c3ccccc3C(F)(F)F)oc12)c1cncs1 [Compound 267]
13 | C (EC1.5>25 μM) | < 200 | O=C(Nc1cccc2c(=O)cc(-c3cc(F)ccc3Cl)oc12)c1cnccn1 [Compound 300]
14 | C (EC1.5>25 μM) | < 200 | O=C(Nc1ccccn1)c1cccc2c(=O)cc(-c3cccc(C(F)(F)F)c3)oc12 [Compound 207]
15 | B (EC1.5 1-25 μM) | > 200 | O=C(Nc1cccc2c(=O)cc(-c3cccnc3C(F)(F)F)oc12)c1cnccn1 [Compound 306, N-(4-oxo-2-(2-(trifluoromethyl)pyridin-3-yl)-4H-chromen-8-yl)pyrazine-2-carboxamide]
16 | A (EC1-5<1.0) | > 200 | CC(C)c1ccccc1-c1cc(=O)c2cccc(NC(=O)c3cnccn3)c2o1 [Compound 286]
17 | C (EC1.5>25 μM) | < 200 | CS(=O)(=O)c1ccccc1-c1cc(=O)c2cccc(NC(=O)c3cnccn3)c2o1 [Compound 265]
18 | B (EC1.5 1-25 μM) | < 200 | CS(=O)(=O)c1ccccc1-c1cc(=O)c2cccc(NC(=O)c3cscn3)c2o1 [Compound 266]
19 | A (EC1-5<1.0) | > 200 | Cc1ncoc1C(=O)Nc1cccc2c(=O)cc(-c3ccccc3C(F)(F)F)oc12 [Compound 268]
20 | A (EC1-5<1.0) | > 200 | O=C(Nc1cccc2c(=O)cc(-c3ccccc3C(F)(F)F)oc12)c1cccc(OCC(O)CO)n1 (stereo not shown) [Compound 318]

Row | EC1.5 μM | Emax [%] | SMILES
21 |  | < 200 | Cc1cnc(NC(=O)c2cccc3c(=O)cc(-c4ccccc4Br)oc23)s1 [Compound 236]
22 | C (EC1.5>25 μM) | < 200 | CS(=O)(=O)c1cccc(-c2cc(=O)c3cccc(NC(=O)c4cnccn4)c3o2)c1 [Compound 219]
23 | A (EC1-5<1.0) | > 200 | O=C(Nc1cccc2c(=O)cc(-c3ccccc3Cl)oc12)c1cccc(OCC(O)CO)n1 (stereo not shown) [Compound 334]
24 | C (EC1.5>25 μM) | < 200 | CS(=O)(=O)c1cccc(-c2cc(=O)c3cccc(NC(=O)c4cscn4)c3o2)c1 [Compound 222]
25 | C (EC1.5>25 μM) | < 200 | O=C(Nc1nccs1)c1cccc2c(=O)cc(-c3cccc(OC(F)(F)F)c3)oc12 [Compound 210]
26 | A (EC1-5<1.0) | > 200 | Cn1nccc1C(=O)Nc1cccc2c(=O)cc(-c3ccccc3Cl)oc12 [Compound 337]
27 | B (EC1.5 1-25 μM) | > 200 | O=C(Nc1cccc2c(=O)cc(-c3ccccc3Cl)oc12)c1cccc(N2CCOCC2)c1 [Compound 336]
28 | B (EC1.5 1-25 μM) | > 200 | O=C(Nc1cccc2c(=O)cc(-c3cnccc3C(F)(F)F)oc12)c1cnccn1 [Compound 308]
29 | B (EC1.5 1-25 μM) | > 200 | O=C(Nc1cccc2c(=O)cc(-c3c(F)cccc3Cl)oc12)c1cscn1 [Compound 297]
30 | B (EC1.5 1-25 μM) | > 200 | O=C1CCC(C(=O)Nc2cccc3c(=O)cc(-c4ccccc4C(F)(F)F)oc23)N1 (stereo not shown) [Compound 313, 5-oxo-N-(4-oxo-2-(2-(trifluoromethyl)phenyl)-4H-chromen-8-yl)pyrrolidine-2-carboxamide]
31 | A (EC1-5<1.0) | > 200 | O=C(Nc1cccc2c(=O)cc(-c3ccccc3Cl)oc12)c1cscn1 [Compound 281]
32 |  | > 200 | O=C(Nc1cccc2c(=O)cc(-c3ccccc3Br)oc12)c1cscn1 [Compound 231]
33 | C (EC1.5>25 μM) | < 200 | O=C(Nc1cccc2c(=O)cc(-c3ccccc3OC(F)F)oc12)c1cscn1 [Compound 264]
34 | A (EC1-5<1.0) | > 200 | O=C(Nc1cccc2c(=O)cc(-c3ccccc3C(F)(F)F)oc12)c1cscn1 [Compound 227, N-(4-oxo-2-(2-(trifluoromethyl)phenyl)-4H-chromen-8-yl)thiazole-4-carboxamide]
35 | B (EC1.5 1-25 μM) | > 200 | O=C(Nc1cccc2c(=O)cc(-c3ccccc3C(F)(F)F)oc12)c1cocn1 [Compound 272]
36 | A (EC1-5<1.0) | > 200 | O=C(Nc1cccc2c(=O)cc(-c3ccccc3C(F)F)oc12)c1cscn1 [Compound 283]
37 | C (EC1.5>25 μM) | < 200 | O=c1cc(-c2ccccc2C(F)(F)F)oc2c(NS(=O)(=O)c3cccnc3)cccc12 [Compound 326, N-(4-oxo-2-(2-(trifluoromethyl)phenyl)-4H-chromen-8-yl)pyridine-3-sulfonamide]
38 | C (EC1.5>25 μM) | < 200 | O=C(Nc1cccc2c(=O)cc(-c3cccc(C(F)(F)F)c3)oc12)c1ccc(OC[C@@H](O)CO)nc1 [Compound 247]
39 | B (EC1.5 1-25 μM) | > 200 | O=C(Nc1cccc(CN2CCCC2)n1)c1cccc2c(=O)cc(-c3cccc(C(F)(F)F)c3)oc12 [Compound 243, 4-oxo-N-(6-(pyrrolidin-1-ylmethyl)pyridin-2-yl)-2-(3-(trifluoromethyl)phenyl)-4H-chromene-8-carboxamide]
